In article PMC12362615, “Design, Synthesis, and Cellular Characterization of a New Class of IPMK Kinase Inhibitors” (Journal of Medicinal Chemistry, 2025):
Entries after “also recorded” stand apart in the source; their conditions may differ.

Columns and labels:
[1] = molecular target: T1, purified recombinant human IP6K2 kinase domain (Homo sapiens, UniProt Q9UHH9); assay: IP6K2 IC50 determination, malachite green Pi release assay; type: biochemical
T1 sequence (Q9UHH9 1-426): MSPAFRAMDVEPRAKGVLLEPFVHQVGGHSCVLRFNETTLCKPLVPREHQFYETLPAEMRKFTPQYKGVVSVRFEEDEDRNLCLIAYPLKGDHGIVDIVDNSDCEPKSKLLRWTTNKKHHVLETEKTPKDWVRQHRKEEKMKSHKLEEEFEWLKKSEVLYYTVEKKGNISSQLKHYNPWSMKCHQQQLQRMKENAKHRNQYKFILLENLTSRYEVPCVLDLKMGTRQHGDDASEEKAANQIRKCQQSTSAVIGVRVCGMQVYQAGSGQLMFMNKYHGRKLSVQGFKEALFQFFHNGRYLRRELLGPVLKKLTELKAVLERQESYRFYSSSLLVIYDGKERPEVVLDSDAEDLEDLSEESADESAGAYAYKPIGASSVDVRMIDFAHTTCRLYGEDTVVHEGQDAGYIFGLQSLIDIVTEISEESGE
Method: IP6K2 IC50 values were determined using the purified recombinant human IP6K2 kinase domain expressed in a 384-well clear polystyrene plate (VWR 82051-264). This human IP6K2 kinase domain (100 nM) was used at 37 °C in 50 μL reaction mixtures containing 5.0 μM human Dipp1, 50 mM Tris (pH 6.9), 10 mM MgCl2, 0.02% Triton X-100, 25 μM InsP6, and 50 μM ATP for 30 min. Pi release was determined with a malachite green colorimetric assay. Reactions were quenched by the addition of 12.5 μL of phosphate detection reagent (MAK3071KT, Sigma-Aldrich). Pi release was quantified from the absorbance at 620 nm by using appropriate standards.

[2] = tested on: inositol phosphate levels in U251-MG cells; assay: 3H-inositol metabolic labeling and HPLC of inositol phosphates; type: cell-based, human; details: 10 μM, vs DMSO
Method: Human U251-MG glioblastoma cells (ECACC 09063001) were grown in DMEM supplemented with 10% FBS. The medium was changed to inositol-free DMEM, and cells were inositol-starved for 1–3 days. Cells were maintained in inositol-free DMEM medium, treated with the indicated inhibitor or DMSO for 1–2.5 h, and supplemented with 100 μCi ^3H-inositol (PerkinElmer) for 48 or 72 h, as indicated on each figure. Cells were then washed in PBS and lysed in 200 μL HCl (0.5 M), 250 μL of MeOH was added to each well of a 6-well plate (approximately 10^6 cells), followed by 125 μL of 2 M KCl. Lysates were scraped and sonicated on ice for three 1 min cycles. Inositol phosphate (IP) extracts were cleaned of lipids by adding 250 μL of CHCl3, vortexing and centrifuging samples for 2 min at 5000 rpm to separate upper aqueous and lower organic phases, upper phase contains soluble IPs. This extraction was repeated once. Samples were dried in a SpeedVac, resuspended in 10 mM ammonium phosphate (pH= 3.5), and filtered. HPLC separation and detection of the inositol species on the upper phase used a Partisphere SAX 4.6 mm × 250 mm column, eluted with 10 mM (buffer A) to 1.3 M (buffer B) ammonium phosphate (pH = 3.8) and online flow scintillation analyzer (FSA, PerkinElmer). Elution of [^32P]-labeled IP4, IP5, and IP6 standards confirmed the identity of each peak off the HPLC. Quantification represents three biologically independent metabolic labeling samples with error representing the standard deviation of the mean.

[3] = tested on: AKT phosphorylation in U251-MG glioblastoma cells; assay: Western blots of phospho-AKT; type: cell-based, human; design: key to AKT P-Thr-308 signal intensity compared to DMSO / AKT P-Ser-473 signal intensity compared to DMSO: ns= not si gni fi cant by unpai r ed t -test
Method: About 3.5 × 10^6 U251 cells were seeded in 15 cm plates containing 30 mL of DMEM supplemented with 4.5 g/L D-glucose, L-glutamine, 10% FBS, 1% nonessential amino acids, and 1% penicillin–streptomycin (all from Thermo Fisher). […] Protein concentration was equalized using a Bradford assay, and samples were run on SDS-PAGE at 150 V for 1 h. Protein transfer was performed at 20 V for 1 h, membranes were blocked with 7 mL of EveryBlot blocking buffer (Bio-Rad) for 10 min. Primary antibodies used were AKT (#9272), Actin (#3700), and phospho-AKT (Ser473, #4060) at a 1:1000 dilution in EveryBlot blocking buffer, and phospho-AKT (Thr308, #13038) at a 1:400 dilution; all antibodies were from Cell Signaling Technology. After overnight incubation at 4 °C, membranes were washed and incubated with secondary antibodies (1:10,000 dilution for AKT, Actin, and P-AKT Ser473; 1:4000 for P-AKT Thr308) for 1 h. Detection was performed using Clarity Western ECL substrate (Bio-Rad) according to the manufacturer’s instructions and imaged using the Bio-Rad ChemiDoc system.

[4] = Pharmacokinetic studies in mice; type: in vivo, male CD1 mice
Method: All the procedures related to animal handling, care, and treatment in this study were performed according to guidelines approved by the Institutional Animal Care and Use Committee (IACUC) of Pharmaron (PK-R-06012023 and PK-M-07182023), following the guidance of the Association for Assessment and Accreditation of Laboratory Animal Care (AAALAC). A group of 3 male CD1 mice (2 for exploratory PK) were dosed intravenously (IV) or intraperitoneally (IP) with a solution formulation of the tested compounds in 10% NMP, 5% Solutol in normal saline (v/v/v, 10:5:85). From each mouse, blood samples ([…]) were collected from the orbital vein such that samples were obtained at 0.083, 0.25, 0.5, 1, 2, 4, 8, and 24 h post dose. At each time point, blood samples were collected from three mice in labeled microcentrifuge tubes containing EDTA-K2 as an anticoagulant. Plasma samples were separated by centrifugation of whole blood and stored at −75 ± 15 °C until bioanalysis. All samples were processed for analysis by precipitation using acetonitrile (ACN) and analyzed with a fit-for-purpose LC/MS/MS method (the below quantifiable limit (BLOQ) was 5.0 ng/mL). Pharmacokinetic parameters were calculated by a noncompartmental analysis model using WinNonlin 8.3.

[5] = male, CD1, mouse, plasma, IV, dose 2.75 mg/kg

With `c1cc(-c2onc3ccc(-c4nnn[nH]4)cc23)cc(C2CCN(C3CCC3)CC2)c1` [Compound 14, 3-(3-(1-Cyclobutylpiperidin-4-yl)phenyl)-5-(1H-tetrazol-5-yl)benzo[c]isoxazole] the IP6K2/IPMK ([1]; Table S1, ratio of IC50 values) was 12, the “selectivity for IPMK over IP6K2” value ([1]; from Table S1) was 12 fold and the IC50 ([1]; supplementary csv) was 374 ± 159 nM. For the same molecule, the “decrease of InsP5 levels” value ([2]; 48 h) was 50%, the “increase of InsP4 levels” value ([2]; 48 h) was “about 50%” and the “level of InsP6” value ([2]; 48 h) was “no change”. The IP6 levels ([2]; 72 h) was “did not change; also recorded: does not decrease”, the InsP4 levels ([2]; 72 h) was “rose slightly” and the InsP7 levels ([2]; 72 h) was “did not change; also recorded: does not decrease”. For the same molecule, the “AKT P-Ser-473 signal intensity compared to DMSO” value ([3]; 10 μM) was “ns”, the “AKT P-Thr-308 signal intensity compared to DMSO” value ([3]; 10 μM) was “ns” and the “AKT P-Ser-473 signal intensity compared to DMSO” value ([3]; 30 μM) was “ns”. The “AKT P-Thr-308 signal intensity compared to DMSO” value ([3]; 30 μM) was “ns”, the “AKT P-Ser-473 signal intensity compared to DMSO” value ([3]; 50 μM) was “ns” and the “AKT P-Thr-308 signal intensity compared to DMSO” value ([3]; 50 μM) was “ns”. The “cytosolic AKT phosphorylation” value ([3]; after 48 h of treatment as printed in text) was “did not detect any changes”, the “Vss (L/kg)” value ([4]; IV, dose 2.75 mg/kg) was “increased” and the AUC(0-t) ([4]; male, CD1, mouse, plasma, 10 mg/kg via IV and IP administration (route of this value not stated), n = 3) was 8.26 µM·h. For the same molecule, the AUC(0-t) [4, 5] was 4.6 µM·h, the Cmax [4, 5] was 28.3 µM and the clearance [4, 5] was 22.8 mL/min/kg. It also gave a half-life [4, 5] of 1.95 h, a Vd ([4]; male, CD1, mouse, plasma, IV, dose 2.75 mg/kg, read-out: Vss) of 0.39 L/kg and a bioavailability ([4]; male, CD1, mouse, plasma, intraperitoneal, 10 mg/kg, IP vs IV, n = 3) of 82%.
